Reference: PubChem BioAssay (NCI)
Several values for one entry are separate records, joined by “and”; a condition that tells them apart may be missing. Equal values may be shown once.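 Briefly, cells in 96-well plates were exposed to five compound concentrations for 48 h, and endpoints were estimated by linear interpolation. GI50 marks 50% less growth. TGI denotes the concentration required for complete inhibition of growth.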

Columns and labels:
Test in all cases: DTP human tumour cell line panel, 48 h
[1] = tested on: MDA-MB-435
[2] = tested on: RXF 393 renal
[3] = tested on: HOP-62 NSCLC
[4] = tested on: OVCAR-8 ovarian
[5] = tested on: HCT-116 colon
[6] = tested on: NCI-H23 lung
[7] = tested on: M14 melanoma
[8] = tested on: SF-295 CNS
[9] = tested on: K-562 leukemia
[10] = tested on: HCC-2998 colon
[11] = tested on: MDA-N

Row | SMILES | TGI [1] | TGI [2] | TGI [3] | TGI [4] | TGI [5] | TGI [6] | TGI [7] | TGI [8] | TGI [9] | TGI [10] | TGI [11] | GI50 [1] | GI50 [7] | GI50 [11] | GI50 [2] | GI50 [4] | GI50 [5] | GI50 [9]
1 | COc1ccc(-c2cc(-c3ccncc3)nc(N)c2-c2ccc(F)cc2)cc1 | > 100 µM | 68.6 µM | > 100 µM | > 100 µM | 51.7 µM | > 100 µM | > 100 µM | > 100 µM | > 100 µM | – | – | – | – | – | – | – | – | –
2 | COC(=O)CCC(=O)c1ccc2c(c1)CC1(Cc3ccccc3C1)C2 | > 100 µM | > 100 µM | > 100 µM | > 100 µM | > 100 µM | > 100 µM | > 100 µM | > 100 µM | – | > 100 µM | > 100 µM | – | – | – | – | – | – | –
3 | O=Cc1ccc(Oc2c3ccccc3nc3ccccc23)cc1 | 6.85 µM | 21.5 µM | 33.9 µM | 21 µM | 4.9 µM | – | 10.7 µM | 55.4 µM | – | 28.6 µM | 13.8 µM | – | – | – | – | – | – | –
4 | COc1ccc(-c2c(C#N)c(N)n(C3OC(COC(C)=O)C(OC(C)=O)C(OC(C)=O)C3OC(C)=O)c(=S)c2C#N)cc1 (configuration not stated) | > 100 µM and 26.2 µM | 84.6 µM and 72.2 µM | 89.1 µM and 51.6 µM | > 100 µM and 75.4 µM | > 100 µM | > 100 µM | > 100 µM | > 100 µM | – | > 100 µM and 38.2 µM | > 100 µM and 28.2 µM | 44.1 µM and 13.4 µM | > 100 µM and 28.4 µM | 58.3 µM and 15 µM | – | – | – | –
5 | O=c1n(CC2CO2)c2ccccc2n1CC1CS1 (configuration not stated) | – | > 100 µM | > 100 µM | > 100 µM | > 100 µM | – | > 100 µM | > 100 µM | > 100 µM | > 100 µM | – | – | – | – | – | – | – | –
6 | O=[N+]([O-])c1cnccc1-n1nnc2ccccc21 | – | 46.8 µM | 59.3 µM | 50.8 µM | > 100 µM | > 62 µM | – | > 74.7 µM | > 100 µM | 51.6 µM | – | – | – | – | – | – | – | –
7 | CSc1nc(NC2OC(CO)C(O)C(O)C2O)c(N)c(=O)[nH]1 (configuration not stated) | – | > 100 µM | > 100 µM | > 100 µM | > 100 µM | > 100 µM | – | > 100 µM | > 100 µM | > 100 µM | – | – | – | – | – | – | – | –
8 | COC(=O)C(Cc1cc(OC)c(OC)c(OC)c1)(NC(=O)c1ccccc1)P(=O)(OC)OC (configuration not stated) | – | > 100 µM | > 100 µM | > 100 µM | > 100 µM | > 100 µM | > 100 µM | > 100 µM | > 100 µM | > 100 µM | – | – | – | – | – | – | – | –
9 | COc1ccc(/C=C2/C(=O)C(c3ccccc3)N(c3ccccc3)C2=O)cc1OC (configuration not stated) | > 10 µM | > 10 µM | > 10 µM | > 10 µM | > 10 µM | > 10 µM | > 10 µM | > 10 µM | – | > 10 µM | > 10 µM | – | – | – | – | – | – | –
10 | CC(=O)Nc1ccc(C(=O)NN2C(=O)C(Cl)C2/C=C/c2ccccc2)cc1 (configuration not stated) | – | – | > 100 µM | > 100 µM | > 100 µM | > 100 µM | – | > 100 µM | > 100 µM | > 100 µM | – | – | – | – | – | – | – | –
11 | O=C1CSC2(CC(/C=C/c3ccccc3[N+](=O)[O-])=NN2c2cccc(S(=O)(=O)O)c2)N1c1nc2ccccc2s1 (configuration not stated) | 28.1 µM | > 75 µM | – | 28.6 µM | > 75 µM | 34.4 µM | 60.7 µM | – | 63.3 µM | > 75 µM | 50.6 µM | – | – | – | – | – | – | –
12 | C=C(C)[C@H]1C=C[C@@H](OC(C)=O)[C@@]2(COC(C)=O)[C@H](OC(=O)CCC)[C@H]3[C@@H](OC(C)=O)[C@@H](C)C[C@]3(O)C(=O)[C@@](C)(OC(C)=O)[C@H]12 | 44.2 µM | > 100 µM | – | > 100 µM | > 100 µM | > 100 µM | > 100 µM | – | > 100 µM | 86.5 µM | – | – | – | – | – | – | – | –
13 | COc1ccc(/C=C2\NC(=S)N(CN3CCOCC3)C2=O)cc1 | > 100 µM | – | > 100 µM | > 100 µM | > 100 µM | > 100 µM | > 100 µM | > 100 µM | > 100 µM | – | > 100 µM | – | – | – | – | – | – | –
14 | O=C1N(c2ccccc2)N=C2c3ccncc3C3=NN(c4ccccc4)C(=O)C123 (configuration not stated) | > 100 µM | > 100 µM | > 100 µM | > 100 µM | > 100 µM | > 100 µM | > 100 µM | > 100 µM | > 100 µM | > 88 µM | – | – | – | – | – | – | – | –
15 | O=C(O)c1cc2sc(C(=O)O)cc2s1 | – | > 100 µM | > 100 µM | – | > 100 µM | > 100 µM | > 100 µM | > 100 µM | > 100 µM | – | – | – | – | – | – | – | – | –
16 | CCOC(=O)C(C(=O)OCC)C(=S)NC1OC(COC(C)=O)C(OC(C)=O)C(OC(C)=O)C1OC(C)=O (configuration not stated) | > 100 µM | > 100 µM | > 100 µM | > 100 µM | > 100 µM | > 100 µM | > 100 µM | > 100 µM | – | > 100 µM | > 100 µM | – | – | – | – | – | – | –

Row | SMILES | TGI [1] | TGI [2] | TGI [3] | TGI [4] | TGI [5] | TGI [6] | TGI [7] | TGI [8] | TGI [9] | TGI [10] | TGI [11] | GI50 [1] | GI50 [7] | GI50 [11] | GI50 [2] | GI50 [4] | GI50 [5] | GI50 [9]
17 | Cc1nc2c(ccc3[nH]c4ccccc4c32)s1 | 64.7 µM | > 100 µM | 40 µM | > 100 µM | 37.2 µM | 91.7 µM | 50.2 µM | – | > 100 µM | 30.2 µM | > 100 µM | – | – | – | – | – | – | –
18 | COc1cc2oc(=O)cc(C)c2c(OC)c1OC | > 100 µM | – | > 100 µM | > 100 µM | > 100 µM | > 100 µM | > 100 µM | > 100 µM | > 100 µM | – | > 100 µM | – | – | – | – | – | – | –
19 | CCN(CC)C(=O)N1CN(c2ccccc2)C2(CCN(CCCC3(c4ccc(F)cc4)OCCO3)CC2)C1=O | 38.9 µM | 27.8 µM | 18.6 µM | 44.4 µM | 23.9 µM | 36.6 µM | > 100 µM | 41.3 µM | – | 28.7 µM | 35.7 µM | – | – | – | – | – | – | –
20 | COC(=O)c1cc(OCc2cc(OCc3ccc(Br)cc3)cc(OCc3ccc(Br)cc3)c2)cc(OCc2cc(OCc3ccc(Br)cc3)cc(OCc3ccc(Br)cc3)c2)c1 | > 100 µM | – | > 100 µM | – | > 100 µM | > 100 µM | > 100 µM | > 100 µM | > 100 µM | > 100 µM | > 100 µM | – | – | – | – | – | – | –
21 | Cc1cc(NS(=O)(=O)c2ccc(N=Nc3c(Nc4ccccc4)nn(-c4ccc(S(=O)(=O)Nc5ccncn5)cc4)c3C)cc2)no1 | > 100 µM | – | > 100 µM | > 100 µM | > 100 µM | > 100 µM | > 100 µM | > 100 µM | > 100 µM | > 100 µM | > 100 µM | – | – | – | – | – | – | –
22 | CSc1c(C#N)c(=O)n(N)c2n[nH]c(C)c12 | > 100 µM | > 100 µM | – | > 100 µM | > 100 µM | > 100 µM | – | – | > 100 µM | > 100 µM | > 100 µM | – | – | – | – | – | – | –
23 | O=C(O)Cc1ccc(-n2nnc3c(=O)[nH][nH]c(=O)c32)cc1 | > 100 µM | – | > 100 µM | > 100 µM | > 100 µM | > 100 µM | > 100 µM | > 100 µM | > 100 µM | > 100 µM | > 100 µM | – | – | – | – | – | – | –
24 | CCCCCCCCC[C@@H]1C[C@H](O)[C@H](Cc2ccccc2)N1C(=O)OC(C)(C)C | – | 32.2 µM | 34.9 µM | 34.3 µM | 31.9 µM | 31.6 µM | 38.4 µM | 30.1 µM | > 100 µM | 27.8 µM | – | – | – | – | – | – | – | –
25 | COc1cc(/C=C2\CCCC3=C2N=C2SC=NN2C3c2cc(OC)c(OC)c(OC)c2)cc(OC)c1OC (configuration not stated) | 5.17 µM | 4.74 µM | – | 29.8 µM | 3.41 µM | – | 7.1 µM | – | > 100 µM | – | – | 2.04 µM | 2.4 µM | – | 2.2 µM | 3.23 µM | 1.76 µM | 3.08 µM
26 | O=C1C=C(NCCc2ccc(O)cc2)C(=O)C=C1NCCc1ccc(O)cc1 | > 100 µM | > 100 µM | > 100 µM | > 100 µM | > 100 µM | > 100 µM | – | > 100 µM | > 100 µM | > 100 µM | – | – | – | – | – | – | – | –
27 | Cc1ccc(S(=O)(=O)N/N=C2/C3CC4CCC2C4C3)cc1 (configuration not stated) | > 100 µM | > 100 µM | > 100 µM | > 100 µM | > 100 µM | > 100 µM | > 100 µM | > 100 µM | – | > 100 µM | > 100 µM | – | – | – | – | – | – | –
28 | COc1ccc(C(CC(=O)c2ccc(O)cc2)C(C(=O)c2ccc(O)cc2)C(c2ccc(OC)cc2)C2C(=O)NC(=S)NC2=O)cc1 (configuration not stated) | 61.2 µM | – | 67.1 µM | 60 µM | 30.4 µM | – | 39.3 µM | 52.3 µM | > 100 µM | – | 41.5 µM | – | – | – | – | – | – | –
29 | CN1CCN2CCN(C)CCN(CC1)CC2 | > 100 µM | > 100 µM | > 100 µM | > 100 µM | > 100 µM | > 100 µM | > 100 µM | > 100 µM | > 100 µM | – | > 100 µM | – | – | – | – | – | – | –
30 | O=CC1C(=O)Nc2nc3ccccc3n2C1c1ccccc1 (configuration not stated) | 44.8 µM | 16 µM | 20.2 µM | 46.1 µM | 24.9 µM | 53.5 µM | 34 µM | 43.8 µM | 35.3 µM | – | – | – | – | – | – | – | – | –
31 | FC1(F)SC2CCCCCCCCCCC2C1(F)F (configuration not stated) | > 100 µM | 54 µM | > 100 µM | > 100 µM | 37.1 µM | 80.1 µM | > 100 µM | > 100 µM | 35.3 µM | – | > 100 µM | – | – | – | – | – | – | –
32 | O=C(CN1CCOCC1)c1ccc2c(c1)oc(=O)n2CCN1CCCCC1 | > 100 µM | > 100 µM | > 100 µM | > 100 µM | > 100 µM | > 100 µM | > 100 µM | > 100 µM | > 100 µM | – | > 100 µM | – | – | – | – | – | – | –
